Assay results as given in US20090170846A1, “INHIBITORS OF THE HIV INTEGRASE ENZYME” (Pfizer Inc, priority 2005, published 2009).

Tests used:
[1] = biological target: T1, Full-length wild type HIV-1 integrase (SF1) (Human immunodeficiency virus type 1 group M subtype B, UniProt P04585); test: Integrase strand-transfer scintillation proximity assay; format: biochemical; settings: integrase strand-transfer SPA; read-out: IC50
T1 construct: made in house; host or cells: E. coli BL21 (DE3)
Outline: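 Strand transfer used E. coli-expressed full-length HIV-1 integrase (aa 1–289). The donor was biotinylated, preprocessed U5 LTR viral ds-DNA bound to streptavidin SPA beads, with [3H]-thymidine-labelled host ds-DNA as target. Integration was detected by scintillation proximity.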

[2] = system: RF strain of HIV-1 in CEM-SS cells; test: HIV-1 cell protection assay (XTT dye reduction); format: cell-based; settings: Human immunodeficiency virus 1, CEM-SS, 144 h
Outline: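 CEM-SS cells infected at an moi giving about 90% kill (mock-infected for toxicity) and exposed to half-log compound dilutions for six days; XTT/PMS added for 4 h, formazan read at 450 nm. EC50 as protection to 50% of uninfected control, CC50 from uninfected cells, therapeutic index as CC50/EC50.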

Row | SMILES | IC50 [1] [nM] | EC50 [2] [nM]
1 | CONC(=O)c1cc2c(C(=O)NC(C)C)cn(Cc3ccc(F)cc3)c2cn1 [Example 47, 1-(4-fluorobenzyl)-N3-isopropyl-N5-methoxy-1H-pyrrolo[2,3-c]pyridine-3,5-dicarboxamide] | 249 | 32
2 | CONC(=O)c1cc2c(C(=O)NCC(F)F)cn(Cc3ccc(F)cc3)c2cn1 [Example 48, N3-(2,2-difluoroethyl)-1-(4-fluorobenzyl)-N5-methoxy-1H-pyrrolo[2,3-c]pyridine-3,5-dicarboxamide] | 510 | 29
